The test system of this series is three-dimensional cultured human skin model (EPI-606X). Description: Skin permeability test. As to the method:
A three-dimensional cultured human skin model (EPI-606X, Kurabo Industries Ltd., area: 3.8 cm^2) was placed in a 6-well plate containing PBS solution (1 mL) so that the lower portion thereof was submerged. The human skin model was then allowed to stand undisturbed for 30 minutes in an incubator under conditions of 37° C. and a carbon dioxide concentration of 5%. Next, the PBS solution in the lower wells of the skin model was replaced with HBSS(−) solution (Hanks solution, 1 mL) (to be referred to as the “receiver liquid”) and the sample solution (700 μL) obtained above was administered onto the skin model. The skin model was then allowed to stand undisturbed for 24 hours in an incubator under conditions of 37° C. and a carbon dioxide concentration of 5%.
After allowing to stand undisturbed for 24 hours, the sample solution on the skin model was removed using a pipette followed by removing the skin model from the wells and washing with PBS (−) solution. Next, a section of the skin model was cut out and placed in a 2 mL tube. Methanol (1 mL) and stainless steel beads (Tomy Co., Ltd., diameter: 5.5 mm) were added to the tube followed by crushing the section using a Multi Beads Shocker (Yasui Kikai Corp.) under conditions of 10 seconds at 2000 rpm for 10 cycles.
Following crushing, the resulting solution was transferred to a 2 mL Eppendorf tube and centrifuged for 5 minutes at 12000 rpm followed by filtering the supernatant with a filter (pore diameter: 0.22 μm) to obtain a skin model extract.
Next, the amounts of test substance in the skin model extract and receiver liquid were quantified for each test substance under the previously described HPLC Analysis Conditions 1. The total amount of test substance absorbed by the skin model in each well was calculated from the quantified value of test substance in the skin model extract. In addition, the quantified value of test substance in the receiver liquid was used as the amount of test substance that permeated the skin model. The total value A (μg) of the total amount of test substance absorbed by the skin model and the amount of test substance that permeated the skin model was then calculated.
The permeation rate (%) through the skin model for each test substance administered to the skin model was calculated according to the following equation (i). Moreover, the aforementioned skin permeability test was carried out three times for each test substance followed by calculation of each permeation rate (%). […] Furthermore, the value shown in front of the (±) symbol in the column entitled “Permeation Rate (%)” indicates the average value of the three results, while the number after the (±) symbol indicates the range of variation of the three results. Permeation rate (%)=(A/1400(amount of test substance administered to skin model) (μg)))×100 (i)

Where [1] appears, read: 0.2% by weight sample solution in PBS(-), pH 7.4, 700 μL on skin model, 24 hours, 37° C., average ± range of variation of three results.
Where [2] appears, read: skin model, 24 hours, compared with non-acylated β-NMN or among the examples.

Where two headings read alike, the source gives them in different places.

With `NC(=O)c1ccc[n+]([C@@H]2O[C@H](COP(=O)([O-])O)[C@@H](O)[C@H]2O)c1` [Comparative Example 2, β-nicotinamide mononucleotide, reference compound], the “Permeation Rate (%)” value (pH 7.4) was 15 ± 0.4%. For the compound `CCCCCCCCCCCCCCCC(=O)O[C@H]1[C@@H](O)[C@H]([n+]2cccc(C(N)=O)c2)O[C@@H]1COP(=O)([O-])O` [Example 1, 3′-palmitoyl-β-nicotinamide mononucleotide], the “Permeation Rate (%)” value under setting [1] is reported as 40 ± 4.7%. The “Permeation rate, comparison in words” value under setting [2] is on record as “particularly high”. In the case of `CCCCCCCCCCCCCCCC(=O)O[C@@H]1[C@H](OC(=O)CCCCCCCCCCCCCCC)[C@@H](COP(=O)([O-])O)O[C@H]1[n+]1cccc(C(N)=O)c1` [Example 2, 2′,3′-dipalmitoyl-β-nicotinamide mononucleotide], under setting [1], the “Permeation Rate (%)” value is 41 ± 1.7%. Also, the “Permeation rate, comparison in words” value under setting [2] was “particularly high”. Take `CCCCCCCCCCCC(=O)O[C@H]1[C@@H](O)[C@H]([n+]2cccc(C(N)=O)c2)O[C@@H]1COP(=O)([O-])O` [Example 3, 3′-lauroyl-β-NMN]: the “Permeation rate, comparison in words” value is given as “particularly high”. Besides, the “Permeation Rate (%)” value (pH 7.4) was found to be 35 ± 4.7%. `CCCCCCCCCCCC(=O)O[C@@H]1[C@H](OC(=O)CCCCCCCCCCC)[C@@H](COP(=O)([O-])O)O[C@H]1[n+]1cccc(C(N)=O)c1` [Example 4, 2′,3′-dilauroyl-β-NMN]: the “Permeation rate, comparison in words” value is on record as “particularly high”. In addition, the “Permeation Rate (%)” value (pH 7.4) turned out to be 40 ± 4.7%. As to `CCCCCCCC(=O)O[C@H]1[C@@H](O)[C@H]([n+]2cccc(C(N)=O)c2)O[C@@H]1COP(=O)([O-])O` [Example 5, 3′-octanoyl-β-NMN], the “Permeation Rate (%)” value (pH 7.4) stood at 31 ± 4.7%. In the case of `CCCCCCCC(=O)OC1C(COP(=O)([O-])O)OC([n+]2cccc(C(N)=O)c2)C1OC(=O)CCCCCCC` (stereo not drawn) [Example 6, 2′,3′-dioctanoyl-β-NMN], the “Permeation Rate (%)” value under setting [1] came to 38 ± 4.7%.

As for `CCCCCC(=O)O[C@H]1[C@@H](O)[C@H]([n+]2cccc(C(N)=O)c2)O[C@@H]1COP(=O)([O-])O` [Example 7, 3′-hexanoyl-β-NMN], where the note is “pH 7.4”, the “Permeation Rate (%)” value is reported as 29 ± 4.7%. On the same count and under the same terms, in the case of `CCCCCC(=O)O[C@@H]1[C@H](OC(=O)CCCCC)[C@@H](COP(=O)([O-])O)O[C@H]1[n+]1cccc(C(N)=O)c1` [Example 8, 2′,3′-dihexanoyl-β-NMN] it was 37 ± 2.7%. `CCCCCCCCCCCCCCCC(=O)O[C@@H]1[C@H](OC(=O)CCCCCCCCCCCCCCC)[C@@H](COP(=O)([O-])[O-])O[C@H]1[n+]1cccc(C(N)=O)c1.[Na+]` [Example 11, 2′,3′-dipalmitoyl-β-NMN sodium salt]: the “Permeation rate, comparison in words” value was “high permeation rate in comparison with the non-acylated β-NMN of Comparative Example 2”. In addition, the “Permeation Rate (%)” value (pH 7.4) came to 41 ± 2.7%. Consider `CC(=O)O[C@@H]1[C@H](OC(C)=O)[C@@H](COP(=O)([O-])O)O[C@H]1[n+]1cccc(C(N)=O)c1` [Synthesis Example 1, 2′,3′-diacetyl-β-nicotinamide mononucleotide, reference compound], for which the “Permeation Rate (%)” value under setting [1] was 16 ± 1.7%. Besides, the “Permeation rate, comparison in words” value under setting [2] is listed as “equal to that of the non-acylated β-NMN of Comparative Example 2”.

(Values after patent US10654882B2, “Nicotinamide mononucleotide derivative and salt thereof, method for producing same, topical skin preparation, cosmetic and food additive” (SHOWA DENKO K.K., priority 2015, dated 2020).)
